Measured values published in US11208407B2, “Substituted phenyl compounds as indoleamine 2,3-dioxygenase (IDO) inhibitors” (Merck Sharp & Dohme Corp., priority 2017, dated 2021).

Experiments:
IDO1 [1] = biological target: T1, IDO1 (Homo sapiens, UniProt P14902); experiment: IDO1 Human Whole Blood Assay; type: cell-based; parameters: Human whole blood was drawn in sodium heparin coated tubes from healthy internal donors; from tissue; host or cells: Human whole blood from healthy donors, stimulated with LPS and IFNγ; conditions: LPS and IFNγ 100 ng/mL, 18 h, kynurenine by LC/MS/MS
T1 sequence (P14902 whole entry): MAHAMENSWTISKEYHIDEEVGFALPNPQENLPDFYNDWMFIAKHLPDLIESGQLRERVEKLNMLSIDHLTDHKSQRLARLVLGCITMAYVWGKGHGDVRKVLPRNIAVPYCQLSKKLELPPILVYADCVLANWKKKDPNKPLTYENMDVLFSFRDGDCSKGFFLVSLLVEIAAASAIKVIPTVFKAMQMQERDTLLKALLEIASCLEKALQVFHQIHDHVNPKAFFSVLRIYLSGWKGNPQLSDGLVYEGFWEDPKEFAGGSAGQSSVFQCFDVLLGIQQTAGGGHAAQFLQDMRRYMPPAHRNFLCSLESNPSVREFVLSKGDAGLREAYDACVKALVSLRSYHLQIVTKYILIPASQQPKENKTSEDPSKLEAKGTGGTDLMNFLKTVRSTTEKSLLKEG
Procedure: IDO1 Human Whole Blood Assay
Compounds to be tested were serially diluted in ten 3-fold steps in DMSO starting from 10 mM. 3 µL of compound dilutions or DMSO alone were then dispensed from the dilution plate into a polypropylene 96-well assay plate containing 97 µL of RPMI medium using an Echo 555 acoustic liquid handler (Labcyte). LPS (lipopolysaccharide) and IFNγ was prepared in RPMI to a 10× of final conc. (1000 ng/mL), final concentration is 100 ng/mL.
Human whole blood was drawn in sodium heparin coated tubes from healthy internal donors. 240 µL of blood was transferred to each of the wells of a v-bottom 96 well plate. 30 µL of compound was transferred from intermediate dilution plate, and incubated for 15 min. 30 μL from stimulants was then transferred to blood and mixed thoroughly. Plate was covered with breathable membrane and incubated at 37° C. for overnight (18 h).
On day 2, isotope labeled standard solutions of kunurenine and tryptophan was made in water at 10× concentration and 30 µL was added to the blood at 3 µM final concentration. The assay plates were centrifuged at 300×G for 10 min with no brake to separate plasma from red blood cells. 60 µL of plasma samples was removed without disturbing red blood cells. Plasma was diluted with RPMI medium in 1:1 ratio and proteins were precipitated out with two volumes of Acetonitrile. The plates were centrifuged at 4000×G for 60 min. 20 µL of supernatant was carefully transferred to a 384 well plate containing 40 µL of 0.1% formic acid in water and analyzed by LC/MS/MS.
LC/MS/MS analyses were performed using Thermo Fisher's LX4-TSQ Quantum Ultra system. This system consists of four Agilent binary high-performance liquid chromatography (HPLC) pumps and a TSQ Quantum Ultra triple quadrupole MS/MS instrument. For each sample, 5 µL were injected onto an Atlantis T3 column (2.1 mm×150 mm, 3 µm particle size) from Waters. The mobile phase gradient pumped at 0.8 mL/min was used to elute the analytes from the column at 25° C. The elution started at 0% B increasing linearly to 25% B at 6.5 min, holding at 25% for 1 min, re-equilibrating to 10 min. Mobile phase A consisted of 0.1% formic acid in water. Mobile phase B consisted of 0.1% of formic acid in acetonitrile. Data was acquired in positive mode using a HESI interface. The operational parameters for the TSQ Quantum Ultra instrument were a spray voltage of 4000 V, capillary temperature of 380° C., vaporizer temperature 400° C., shealth gas 60 arbitrary units, Aux gas 20 arbitrary units, tube lens 85 and collision gas 1.2 mTorr. SRM (selected-reaction monitoring) chromatograms of kynurenine (Q1: 209.2>Q3:94.0) and internal standard (Q1: 215.3>Q3:98.2) were collected for 90 sec. The peak area was integrated by Xcalibur Quan software. The ratios between the kynurenine generated in the reaction and 2D6-Kynurenine spiked-in internal standard were used to generate percentage inhibition and IC50 values. Compounds were titrated and IC50's were calculated by 4 parameter sigmoidal curve fitting formula.

IDO1 [2] = biological target: T1, IDO1; experiment: IDO1 Cellular Assay in HeLa Cells Stimulated with IFNγ; type: cell-based; conditions: IFNγ 100 ng/mL, 300 uM L-tryptophan, about 48 hours, read-out: IDO HeLa Cell Assay, IC50
Procedure: Biological Assays IDO1 Cellular Assay in HeLa Cells Stimulated with IFNγ
HeLa cells were cultured in complete HeLa culture medium (90% EMEM, 10% heat-inactivated fetal bovine serum) and expanded to about 1×10^9 cells. The cells were then collected and frozen down at 1×10^7 cells/vial in 1 mL frozen medium (90% complete HeLa culture medium, 10% DMSO).
Compounds to be tested were serially diluted in ten 3-fold steps in DMSO starting from 10 mM DMSO stocks in Echo low volume plate(s). Compound dilutions or DMSO alone were then dispensed from the dilution plate(s) into Greiner black 384-well assay plate(s) (catalog #781086, 50 nL/well) using an Echo 550 acoustic liquid handler (Labcyte).
Frozen HeLa cells were thawed and transferred into HeLa assay medium (99% complete HeLa culture medium, 1% Pen/Strep) with 20 mL medium/vial of cells. The cells were spun down at 250 g in a table top centrifuge for 5 min and suspended in same volume of HeLa assay medium. The cells were then counted and adjusted to a density of 2×10^5 cells/mL in HeLa assay medium. Sterile L-tryptophan were added to the cells with final concentration of 300 uM L-tryptophan. A small aliquot (2 mL/plate) of HeLa cells were set aside and were not treated with IFNγ, to serve as the Max-E control.
HeLa cells with and without IFNγ were dispensed to the respective wells of 384-well assay plates containing the compounds. The plates were incubated for about 48 hours at a 37° C., 5% CO2 incubator. Afterwards, 12 μL of 0.5 M methyl isonipecotate in dimethyl sulfoxide were added into each well and the plates were sealed and incubated at 37° C. without CO2 overnight. The plates were centrifuged for 1 min at 200×g. The resulting fluorescence was measured in a Spectramax plate reader (Molecular Devices) with a 400 nm excitation filter and a 510 nm emission filter.
The fluorescence intensity of each well was corrected for the background observed in wells with non-IFNγ-treated cells and was expressed as a fraction of the intensity observed in wells of IFNγ-treated cells and DMSO only. Potencies were calculated by linear least squares fit to the four parameter logistic IC50 equation.

Row | Compound | IC50 (IDO1 [1]) | IC50 (IDO1 [2])
1 | O=C(Nc1ccc(C2(c3nc4ncc(C(F)(F)F)cc4[nH]3)CCC2)cc1)c1cccc(Cl)c1 [Example 1, 3-Chloro-N-(4-(1-(6-(trifluoromethyl)-1H-imidazo[4,5-b]pyridin-2-yl)cyclobutyl)phenyl)benzamide] | 74.7 nM | 1.53 nM
2 | N#Cc1cccc(C(=O)Nc2ccc(C3(c4nc5ncc(C#N)cc5[nH]4)CCC3)cc2)c1 [Example 3, 3-Cyano-N-(4-(1-(6-cyano-1H-imidazo[4,5-b]pyridin-2-yl)cyclobutyl)phenyl)benzamide] | 75.1 nM | 3.97 nM
3 | O=C(Nc1ccc(C2(c3nc4ncccc4[nH]3)CCC2)cc1)c1cccc(Cl)c1 [Example 5, N-(4-(1-(1H-imidazo[4,5-b]pyridin-2-yl)cyclobutyl)phenyl)-3-chlorobenzamide] | 192 nM | 2.85 nM
4 | N#Cc1cccc(C(=O)Nc2ccc(C3(c4nc5ccc(C(F)(F)F)cc5[nH]4)CCC3)cc2)c1 [Example 7, 3-cyano-N-(4-{1-[6-(trifluoromethyl)-1H-benzimidazol-2-yl]cyclobutyl}phenyl)benz-amide] | 40.3 nM | 1.1 nM
5 | N#Cc1cccc(C(=O)Nc2ccc(C3(c4nc5ncc(Cl)cc5[nH]4)CCC3)cc2)c1 [Example 10, N-{4-[1-(6-chloro-1H-imidazo[4,5-b]pyridin-2-yl)cyclobutyl]phenyl}-3-cyanobenzamide] | 132 nM | 3.25 nM
6 | N#Cc1cccc(C(=O)Nc2ccc(C3(c4nc5ccc(Cl)cc5[nH]4)COC3)cc2)c1 [Example 11, N-(4-(3-(6-chloro-1H-benzo[d]imidazol-2-yl)oxetan-3-yl)phenyl)-3-cyanobenzamide] | 22.9 nM | 1.56 nM
7 | N#Cc1cccc(C(=O)Nc2ccc(C3(c4nc5cc(Br)cnc5[nH]4)CCC3)cc2F)c1 [Example 16, N-(4-(1-(6-bromo-3H-imidazo[4,5-b]pyridin-2-yl)cyclobutyl)-2-fluorophenyl)-3-cyanobenzamide] | 35.5 nM | 1.17 nM
8 | N#Cc1cccc(C(=O)Nc2ccc(C3(c4nc5cc(C#N)cnc5[nH]4)CCC3)cc2F)c1 [Example 17, 3-Cyano-N-(4-(1-(6-cyano-3H-imidazo[4,5-b]pyridin-2-yl)cyclobutyl)-2-fluorophenyl)benzamide] | 118 nM | 1.71 nM
9 | N#Cc1cccc(C(=O)Nc2ccc(C3(c4nc5cc(Cl)cnc5[nH]4)CCC3)cc2F)c1 [Example 18, N-{4-[1-(6-chloro-3H-imidazo[4,5-b]pyridin-2-yl)cyclobutyl]-2-fluorophenyl}-3-cyanobenzamide] | 103 nM | 0.736 nM
10 | N#Cc1cccc(C(=O)Nc2ccc(C3(c4nc5cc(C(F)(F)F)cnc5[nH]4)CCC3)cc2F)c1 [Example 19, 3-cyano-N-(2-fluoro-4-{1-[6-(trifluoromethyl)-3H-imidazo[4,5-b]pyridin-2-yl]cyclobutyl}phenyl) benzamide] | 43.7 nM | 0.944 nM
11 | O=C(Nc1ccc(C2(c3nc4ncc(Cl)cc4[nH]3)CC(F)(F)C2)cc1)c1cccc(Cl)c1 [Example 24, 3-Chloro-N-(4-(1-(6-chloro-1H-imidazo[4,5-b]pyridin-2-yl)-3,3-difluorocyclobutyl)phenyl)benzamide] | 120 nM | 1.85 nM
12 | N#Cc1cccc(C(=O)Nc2ccc(C3(c4nc5ccc(Cl)cc5[nH]4)CC(F)C3)cc2)c1 (stereo not drawn) [Example 25, N-(4-(1-(6-chloro-1H-benzo[d]imidazol-2-yl)-3-fluorocyclobutyl)phenyl)-3-cyanobenzamide] | 47.6 nM | 1.07 nM
13 | N#Cc1cccc(C(=O)Nc2ccc(C3(c4nc5ccc(C#N)cc5[nH]4)CC(F)C3)cc2)c1 (stereo not drawn) [Example 26, 3-Cyano-N-(4-(1-(6-cyano-1H-benzo[d]imidazol-2-yl)-3-fluorocyclobutyl)phenyl)benzamide] | 182 nM | 1.84 nM
14 | O=C(Nc1cccc(Cl)c1)c1ccc(C2(c3nc4ncc(C(F)(F)F)cc4[nH]3)CCC2)cc1 [Example 27, N-(3-chlorophenyl)-4-(1-(6-(trifluoromethyl)-1H-imidazo[4,5-b]pyridin-2-yl)cyclobutyl)benzamide] | 169 nM | 1.48 nM
15 | Cc1cc(C2CC2)ncc1-c1ccc(C2(c3nc4ncc(C#N)cc4[nH]3)CCC2)cc1 [Example 39, 2-(1-(4-(6-Cyclopropyl-4-methylpyridin-3-yl)phenyl)cyclobutyl)-1H-imidazo[4,5-b]pyridine-6-carbonitrile] | 182 nM | 3.6 nM
16 | Cc1cc(OC(F)F)nc(C)c1-c1ccc(C2(c3nc4cc(C(F)(F)F)cnc4[nH]3)COC2)cc1 [Example 42, 2-(3-{4-[6-(difluoromethoxy)-2,4-dimethylpyridin-3-yl]phenyl}oxetan-3-yl)-6-(trifluoromethyl)-3H-imidazo[4,5-b]pyridine] | 445 nM | 2.16 nM
17 | COc1cc(C)c(-c2ccc(C3(c4nc5cc(C(F)(F)F)cnc5[nH]4)COC3)cc2)c(C)n1 [Example 43, 2-{3-[4-(6-methoxy-2,4-dimethylpyridin-3-yl)phenyl]oxetan-3-yl}-6-(trifluoromethyl)-3H-imidazo[4,5-b]pyridine] | 606 nM | 2.81 nM
18 | Cc1cc(OC(F)F)ncc1-c1ccc(C2(c3nc4cc(C(F)(F)F)cnc4[nH]3)COC2)cc1 [Example 44, 2-(3-{4-[6-(difluoromethoxy)-4-methylpyridin-3-yl]phenyl}oxetan-3-yl)-6-(trifluoromethyl)-3H-imidazo[4,5-b]pyridine] | 1660 nM | 2.22 nM
19 | OCc1cc(C(F)(F)F)ncc1-c1ccc(C2(c3nc4cc(C(F)(F)F)cnc4[nH]3)COC2)cc1 [Example 45, [2-(trifluoromethyl)-5-(4-{3-[6-(trifluoromethyl)-3H-imidazo[4,5-b]pyridin-2-yl]oxetan-3-yl}phenyl)pyridin-4-yl]methanol] | 2700 nM | 15.4 nM
20 | OCc1cc(C(F)(F)F)ncc1-c1ccc(C2(c3nc4ncc(Cl)cc4[nH]3)CCC2)cc1 [Example 46, [5-{4-[1-(6-chloro-1H-imidazo[4,5-b]pyridin-2-yl)cyclobutyl]phenyl}-2-(trifluoromethyl)pyridin-4-yl]methanol] | 238 nM | 2.28 nM
21 | OCc1cc(OC(F)F)ncc1-c1ccc(C2(c3nc4cc(Cl)ccc4[nH]3)CCC2)cc1 [Example 47, [5-{4-[1-(5-chloro-1H-benzimidazol-2-yl)cyclobutyl]phenyl}-2-(difluoromethoxy)pyridin-4-yl]methanol] | 191 nM | 3.94 nM
